# Experiments:
# 5-HT2A = 5-HT2A (Homo sapiens, UniProt P28223); assay: Receptor binding activity, 5-HT2A; conditions: binding to 5-HT2A, methods of WO/2009/145900
# Procedure: (§1) Binding to 5HT2A, D2 and SERT is assessed, using the methods described in WO/2009/145900. The compounds of Examples 1 and 2 are found to have potent binding to 5-HT2A, SERT and D2, with affinity constants in the sub-micromolar range: […]
# SERT = SERT (Homo sapiens, UniProt P31645); assay: Receptor binding activity, SERT; conditions: binding to SERT, methods of WO/2009/145900
# Sequence of SERT (P31645 whole entry, species assumed): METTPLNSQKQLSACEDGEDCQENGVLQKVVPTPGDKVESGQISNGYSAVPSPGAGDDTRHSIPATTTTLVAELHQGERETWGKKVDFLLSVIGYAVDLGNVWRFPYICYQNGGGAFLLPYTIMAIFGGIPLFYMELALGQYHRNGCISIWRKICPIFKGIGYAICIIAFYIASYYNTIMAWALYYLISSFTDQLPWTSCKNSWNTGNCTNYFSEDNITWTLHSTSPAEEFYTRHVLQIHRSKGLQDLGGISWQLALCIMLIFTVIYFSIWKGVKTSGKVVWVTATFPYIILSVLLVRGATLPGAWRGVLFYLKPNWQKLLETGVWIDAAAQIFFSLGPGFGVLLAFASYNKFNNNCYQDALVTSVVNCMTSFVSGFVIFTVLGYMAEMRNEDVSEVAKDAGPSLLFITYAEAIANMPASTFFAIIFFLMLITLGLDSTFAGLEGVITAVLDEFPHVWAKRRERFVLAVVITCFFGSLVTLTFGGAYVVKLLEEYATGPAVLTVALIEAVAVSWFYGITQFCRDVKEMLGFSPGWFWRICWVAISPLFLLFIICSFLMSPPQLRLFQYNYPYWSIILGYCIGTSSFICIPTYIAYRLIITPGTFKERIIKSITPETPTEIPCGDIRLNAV
# Procedure: as §1
# D2 = D2 (Homo sapiens, UniProt P14416); assay: Receptor binding activity, D2; conditions: binding to D2, methods of WO/2009/145900
# Sequence of D2 (P14416 whole entry): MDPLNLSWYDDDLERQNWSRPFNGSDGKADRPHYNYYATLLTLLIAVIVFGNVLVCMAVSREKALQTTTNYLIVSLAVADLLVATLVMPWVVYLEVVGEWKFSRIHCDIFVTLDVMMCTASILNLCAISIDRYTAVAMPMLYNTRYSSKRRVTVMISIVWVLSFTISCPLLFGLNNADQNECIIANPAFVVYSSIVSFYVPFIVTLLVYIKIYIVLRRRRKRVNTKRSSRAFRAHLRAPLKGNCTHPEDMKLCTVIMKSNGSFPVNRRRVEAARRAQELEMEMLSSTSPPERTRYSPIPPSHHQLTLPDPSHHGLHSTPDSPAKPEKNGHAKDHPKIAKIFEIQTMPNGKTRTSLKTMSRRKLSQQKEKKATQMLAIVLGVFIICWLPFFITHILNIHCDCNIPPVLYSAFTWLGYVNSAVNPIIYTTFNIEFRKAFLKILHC
# Procedure: as §1
# Sequence of 5-HT2A (P28223 whole entry, species assumed): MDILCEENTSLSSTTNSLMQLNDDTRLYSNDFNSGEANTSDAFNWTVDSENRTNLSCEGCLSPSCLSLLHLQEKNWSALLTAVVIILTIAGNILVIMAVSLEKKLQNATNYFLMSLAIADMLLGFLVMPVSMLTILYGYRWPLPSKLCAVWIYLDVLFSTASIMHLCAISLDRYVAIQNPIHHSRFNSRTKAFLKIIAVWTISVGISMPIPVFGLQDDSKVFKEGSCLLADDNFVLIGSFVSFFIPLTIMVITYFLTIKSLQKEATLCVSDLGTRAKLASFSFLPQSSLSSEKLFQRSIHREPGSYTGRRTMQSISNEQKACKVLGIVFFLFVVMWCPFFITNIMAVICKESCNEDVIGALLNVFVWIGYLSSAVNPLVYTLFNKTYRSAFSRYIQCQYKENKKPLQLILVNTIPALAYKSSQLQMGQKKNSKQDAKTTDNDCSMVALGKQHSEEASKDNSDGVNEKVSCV
Ki (5-HT2A),Ki (SERT),Ki (D2),Compound
350 nM,520 nM,740 nM,"CN1CCN2c3c(cccc31)[C@@H]1CN(CCCC(C)(O)c3ccc(F)cc3)CC[C@@H]12 (stereo partly drawn) [Ex. 1, 2-(4-Fluoro-phenyl)-5-((6bR,10aS)-3-methyl-2,3,6b,9,10,10a-hexahydro-1H,7H-pyrido[3′,4′:4,5]pyrrolo[1,2,3-de]quinoxalin-8-yl)-pentan-2-ol]"
96 nM,300 nM,810 nM,"COC(CCCN1CC[C@H]2[C@@H](C1)c1cccc3c1N2CCN3C)c1ccc(F)cc1 (stereo partly drawn) [Ex. 2, (6bR,10aS)-8-[4-(4-Fluoro-phenyl)-4-methoxy-butyl]-3-methyl-2,3,6b,7,8,9,10,10a-octahydro-1H-pyrido[3′,4′:4,5]pyrrolo[1,2,3-de]quinoxaline]"
